Here are results for 2 molecules from patent publication US20060211690A1, “Microglia inhibitors for interrupting interleukin 12 and IFNgamma-mediated immune reactions” (Schering Aktiengesellschaft, priority 2002, published 2006).

Structures are written as SMILES.

The test system of one experiment is microglia. Briefly: Inhibition of the microglia activation. It is filed as cell-based. The source says:
Compounds that with stimulation with the Aβ-peptide achieve an inhibition of the microglia activity of at least 20% and an inhibition of the cytokine activity of at least 30% are suitable, according to the invention, as microglia inhibitors. The biological properties of the microglia inhibitors can be shown according to the methods that are known to one skilled in the art, for example with the aid of the testing methods that are described below and in WO 01/51473.

In experiment [1] the test system is TNFα. As to the kind of experiment: Inhibition of the TNFα production in LPS-stimulated THP-1 cells. It is filed as cell-based. As to conditions: Homo sapiens, 0.1 μg/ml LPS overnight, read-out: Inhibition of the TNFα Secretion (IC50). The method, then:
(§1) The inhibition of the cytokine production can be visualized, for example, by measuring TNFα and interleukin 12 in lipopolysaccharide (LPS)-stimulated THP-1 cells.
(§2) For this purpose, 2.5×10^5 THP-1 cells (American Type Culture Company, Rockville, Md.)/ml of RPMI 1640 medium (Life Technologies)/10% FCS (Life Technologies, Cat. No. 10270-106) are grown on 96-hole flat-bottomed cell culture plates (TPP, Product No.9296) (100 μl/hole). The compounds according to the invention are added at various concentrations and pre-incubated for 30 minutes. The pre-dilution of the test substances was performed in the incubation medium. The addition of the test substances is carried out as a 2× concentrated substance solution (100 μl/hole). The stimulation of the cells was carried out overnight at 37° C with 0.1 μg/ml of LPS (Sigma L2630, of E. Coli Serotype 011 1.B4). Then, the medium was harvested, and the amount of TNFα or the amount of interleukin 12 was quantitatively determined. To measure the TNFα, a commercially available TNFα kit of the CIS Bio International Company was used (Product No. 62TNFPEB). The amount of interleukin 12 was implemented with the aid of the ORIGEN technology (IGEN International, Inc., Gaithersburg, Md.). The calculated IC50 value corresponds to the concentration of test substance that is required to reach a 50% inhibition of the maximum TNFα or interleukin 12 production. […]

The next experiment relates to IL-10. Briefly: Induction of IL-10 production of peripheral mononuclear blood cells. Particulars: 24 hours; for EC50: Homo sapiens, PHA, read-out: Induction of the IL-10 Secretion after PHA Stimulation EC50. It is filed as cell-based, human. The method, then:
The induction of IL-10 production is visualized by, for example, measuring IL-10 in peripheral mononuclear blood cells that are stimulated in phytohemagglutinin (PHA) or lipopolysaccharide (LPS).
To isolate peripheral mononuclear blood cells, human whole blood was used (drawing of blood via Na-Citrate S-monovettes “Coagulation 9 NC/10 ml”/Sarstedt). The build-up of the lymphocytes and monocytes was accomplished with the aid of the density gradient centrifuging: For this purpose, 15 ml of Histopaque-1077 (Sigma, Cat. No. H8880) in 50 ml LEUCOSEP tubes (Greiner, Cat. No. 227290) is introduced and forced downward by centrifuging for 30 seconds at 250 g by the frits that are contained in the tubes. Then, 20 ml of whole blood is added and centrifuged for 15 minutes at 800 g and at room temperature. After centrifuging, the supernatant (plasma and thrombocytes) is pipetted off and discarded, and the subjacent cell layer (lymphocytes and monocytes) in 50 ml centrifuging tubes (Falcon) is transferred and then washed 3× in culture medium VLE RPMI 1640 (Seromed, No. FG1415) (centrifuging in each case for 10 minutes at 250 g, room temperature). Finally, the cell pellet is resuspended in culture medium VLE RPMI 1640 (Seromed, No. FG1415), 10% FCS (Life Technologies, Cat. No. 16000-044, low endotoxin, heat-inactivated for 1 hour, 56° C.), 50 μg/ml of penicillin-streptomycin solution (Life Technologies, Cat. No. 15140-106) and set at 3×10^6 cells/ml after cell counting by means of trypan blue staining. In each case, 100 μl of cell suspension solution was dispersed on 96-hole flat-bottomed cell culture plates (Costar, Product No. 3599). In each case, 100 μl of 3×-concentrated stimulation solution (3 μg/ml of LPS of E. coli Serotype 0127:B8; Sigma, Cat. No. L-4516 or 300 μg/ml of PHA-L, Biochrom KG, Cat. No. M5030) was added to it. The substances according to the invention were added at various concentrations as 3×-concentrated substance solution (100 μl/well). The stimulation of the cells was carried out at 37° C. and 5% CO2 over a period of 24 hours. Then, the cell culture supernatant was harvested, and IL-10 was determined quantitatively. The IL-10 concentration was determined by means of a commercially available ELISA Kit of the BioSource International Company (human IL-10, Cat. No. KHC0101C). The calculated EC50 value corresponds to the concentration of test substance that is required to increase the IL-10 secretion by 50% of the maximum increase.

A further experiment concerns IFNγ. As to the kind of experiment: Inhibition of the IFNγ production of peripheral mononuclear blood cells (phytohemagglutinin-stimulated). It counts as cell-based. As to conditions: human peripheral mononuclear blood cells, 5 μg/mL phytohemagglutinin, 48 hours; read-out: Inhibition of the IFNγ Secretion (IC50). The method, then:
To visualize the effect of the substances on T-cell activation, for example, the measurement of the IFNγ-secretion can be used.
To isolate peripheral mononuclear cells, human whole blood was used (drawing of blood via Na-citrate S-monovettes “Coagulation 9 NC/10 ml”/Sarstedt). The build-up of the blood cells was accomplished with the aid of density gradient centrifuging: For this purpose, 15 ml of Histopaque 1077 (Sigma, Cat. No. H8880) in LEUCOSEP tubes (Greiner, Cat. No. 227290) is introduced and centrifuged for 30 seconds at 1000 g. Then, 15 ml of whole blood is added and centrifuged for 10 minutes at 1000 g. Finally, the upper plasma layer is pipetted off and the subjacent cell layer (peripheral mononuclear blood cells) is transferred in 15 ml sample tubes (Falcon) and then […] several times with 10 ml of HBSS (HANKS Balanced Solution (without Mg2+ and Ca2+), Cat. No. 14175-53). […]
Then the medium was harvested, and the amount of IFNγ was determined quantitatively. The amount of IFNγ was determined with the aid of the ORIGEN technology (IGEN International, Inc., Gaithersburg, Md.). […]

For experiment [2], the system named is TNFα. As to the kind of experiment: Inhibition of TNFα production of peripheral mononuclear blood cells stimulated with LPS and IFNγ. It is filed as cell-based, human. As to conditions: 24 hours; for IC50: Homo sapiens, read-out: Inhibition of TNF-alpha Secretion after LPS & IFNg Stimulation IC50. How it is done:
(§3) The inhibition of the TNFα and IL-12 HD p70 production is visualized by, for example, measuring TNFα and IL-12 HD p70 in peripheral mononuclear blood cells that are stimulated with lipopolysaccharide (LPS) and interferon gamma (IFNγ).
(§4) To isolate peripheral mononuclear blood cells, human whole blood was used (drawing of blood via Na-Citrate S-monovettes “Coagulation 9 NC/10 ml”/Sarstedt). The build-up of the lymphocytes and monocytes was accomplished with the aid of the density gradient centrifuging: For this purpose, 15 ml of Histopaque-1077 (Sigma, Cat. No. H8880) is introduced into 50 ml LEUCOSEP tubes (Greiner, Cat. No. 227290) and forced downward by centrifuging for 30 seconds at 250 g by the frits that are contained in the tubes. Then, 20 ml of whole blood is added and centrifuged for 15 minutes at 800 g and at room temperature. After centrifuging, the supernatant (plasma and thrombocytes) is pipetted off and discarded, and the subjacent cell layer (lymphocytes and monocytes) is transferred into 50 ml centrifuging tubes (Falcon) and then washed 3× in culture medium VLE RPMI 1640 (Seromed, No. FG1415) (centrifuging in each case for 10 minutes at 250 g, room temperature). Finally, the cell pellet is resuspended in culture medium VLE RPMI 1640 (Seromed, No. FG1415), 10% FCS (Life Technologies, Cat. No. 16000-044, low endotoxin, heat-inactivated for 1 hour, 56° C.), and 50 μg/ml of penicillin-streptomycin solution (Life Technologies, Cat. No.15140-106) and set at 3×10^6 cells/ml after cell counting by means of trypan blue staining. In each case, 100 μl of cell suspension solution was dispersed on 96-hole flat-bottomed cell culture plates (Costar, Product No. 3599). In each case, 100 μl of 3×-concentrated stimulation solution (3 μg/ml of LPS of E. coli Serotype 0127:B8; Sigma, Cat. No. L-4516 and 300 ng/ml of IFNγ 1b, Imukin, Boehringer Ingelheim) was added to it. The substances according to the invention were added at various concentrations as 3×-concentrated substance solution (100 μl/well). The stimulation of the cells was carried out at 37° C. and 5% CO2 over a period of 24 hours. Then, the cell culture supernatant was harvested, and the concentrations of TNFα and IL-12 HD p70 were determined by means of commercially available ELISA Kits of the BioSource International Company (TNF-α EASIA, Cat. No. KAC 1752) and R & D Systems (Quantikine1υ HS IL-12, Cat. No. HS 120).
(§5) The calculated IC50 value corresponds to the concentration of test substance that is required to reach a 50% inhibition of the maximum TNFα- or interleukin 12 HD p70 production.

Another experiment concerns interleukin 12. As to the kind of experiment: Inhibition of the IL 12 production in LPS-stimulated THP-1 cells. It is filed as cell-based. As to conditions: Homo sapiens, 0.1 μg/ml LPS overnight, read-out: Inhibition of the IL 12 Secretion (IC50). The method, then: as §1, §2
A further experiment concerns IL-12 HD p70. As to the kind of experiment: Inhibition of IL-12 HD p70 production of peripheral mononuclear blood cells stimulated with LPS and IFNγ. It counts as cell-based, human. As to conditions: 24 hours; for IC50: Homo sapiens, read-out: Inhibition of IL-12HD Secretion after LPS & IFNg Stimulation IC50. The method, then:
as §3, §4, §5

In general, IC50 refers to the point on the concentration scale where inhibition reaches its midpoint. In general, EC50 refers to the concentration that produces a half-maximal response. As for `Cc1ccc(-n2c(-c3ccccc3)nc3ccc(OCCCCCC(=O)O)cc32)cc1` [Substance 2, 6-[[1-(4-Methylphenyl)-2-phenyl-1H-benzimidazol-6-yl]oxy]hexanoic acid], the IC50 is 160 nM in the experiment on microglia; 150 nM in the experiment on TNFα [1]; 110 nM in the experiment with IFNγ; 120 nM in the experiment on TNFα [2]; less than 300 nM with interleukin 12; 30 nM in the experiment with IL-12 HD p70. Further, the “Induction of the IL-10 Secretion after PHA Stimulation Effectiveness” value with IL-10 is given as 283%. Besides, in the experiment with IL-10, the EC50 is 180 nM. In addition, in the experiment on TNFα [2], the “Inhibition of TNF-alpha Secretion after LPS & IFNg Stimulation Effectiveness” value came to 83%. For the same molecule, the “Inhibition of IL-12HD Secretion after LPS & IFNg Stimulation Effectiveness” value with IL-12 HD p70 is 93%.

`Cc1ccc(-n2c(-c3ccccc3)nc3ccc(OCCCCCC(=O)OC(C)C)cc32)cc1` [Substance 1, 6-[[1-(4-Methylphenyl)-2-phenyl-1H-benzimidazol-6-yl]oxy]hexanoic acid-isopropyl ester]: the IC50 with microglia is 750 nM; in the experiment with TNFα [1], 3000 nM; with IFNγ it was 1300 nM; in the experiment on TNFα [2], 650 nM; with interleukin 12, 2200 nM; with IL-12 HD p70, 92 nM. Also, in the experiment with IL-10, the “Induction of the IL-10 Secretion after PHA Stimulation Effectiveness” value was 245%. The EC50 with IL-10 is more than 1000 nM. Moreover, in the experiment with TNFα [2], the “Inhibition of TNF-alpha Secretion after LPS & IFNg Stimulation Effectiveness” value worked out at 65%. Moreover, the “Inhibition of IL-12HD Secretion after LPS & IFNg Stimulation Effectiveness” value in the experiment with IL-12 HD p70 was 81%.
